Experimental data as given in patent publication US9346795B2, “Substituted sulfonamides useful as antiapoptotic Bcl inhibitors” (Bristol-Myers Squibb Company, priority 2011, dated 2016).

Key:
[1] = target: Bcl-xL (Homo sapiens (Human), UniProt Q07817); assay: Bcl-xL/Bim Fluorescence Resonance Energy Transfer Assay (FRET); assay type: binding
Procedure: Bcl-xL/Bim Fluorescence Resonance Energy Transfer Assay (FRET) The assays were performed in black flat-bottom 384-well plates. The final assay volume was 55 μl prepared from additions of Biotin-Bcl-xL (Bcl-xL: GENBANK® Accession No. […] The reaction was incubated at room temperature for 60 minutes. After 60 minutes, 5 μL of Streptavidin-Terbium FRET detection reagent (Perkin Elmer) was added to the reaction mixture and incubated at room temperature in the dark for 30 mins. […] Compounds were dissolved at 10 mM in dimethylsulfoxide (DMSO) and evaluated at eleven concentrations. IC50 values were derived by non-linear regression analysis.

[2] = target: Bcl-2 (Homo sapiens (Human), UniProt P10415); assay: Bcl-2/Bim Fluorescence Polarization Assay (FPA); assay type: binding
Chain of Bcl-2 (P10415 whole entry): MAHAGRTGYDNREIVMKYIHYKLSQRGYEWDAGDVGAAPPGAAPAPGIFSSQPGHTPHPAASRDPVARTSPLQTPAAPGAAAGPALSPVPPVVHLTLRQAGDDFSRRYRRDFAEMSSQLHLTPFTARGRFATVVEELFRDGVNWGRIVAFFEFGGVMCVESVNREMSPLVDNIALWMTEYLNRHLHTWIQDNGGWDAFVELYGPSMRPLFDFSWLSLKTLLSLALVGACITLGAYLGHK
Procedure: Bcl-2/Bim Fluorescence Polarization Assay (FPA)
The assays were performed in black flat-bottom 384-well plates. […] The reaction was incubated at room temperature for 60 minutes and fluorescence polarization of the reaction was detected on the LJL Plate Reader. Inhibition data were calculated from mP values generated by the no protein control reactions for 100% inhibition and vehicle-only reactions for 0% inhibition. The final concentrations of reagents in the assay were 4.9 nM BCL-2, 5 nM fluoresceinated 18-mer BIM peptide and 1% DMSO. […] Compounds were dissolved at 10 mM in dimethylsulfoxide (DMSO) and evaluated at eleven concentrations. IC50 values were derived by non-linear regression analysis.

Chain of Bcl-xL (Q07817 whole entry): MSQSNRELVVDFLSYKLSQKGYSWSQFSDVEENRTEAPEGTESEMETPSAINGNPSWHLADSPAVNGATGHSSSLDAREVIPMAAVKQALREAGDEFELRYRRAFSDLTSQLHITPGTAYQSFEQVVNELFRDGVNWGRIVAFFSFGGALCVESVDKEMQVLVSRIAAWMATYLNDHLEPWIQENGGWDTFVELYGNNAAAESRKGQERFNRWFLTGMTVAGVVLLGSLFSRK

| IC50 [1] | IC50 [2] | Compound |
| --- | --- | --- |
| 20 nM | 90 nM | CCCCN(CCCC)C(=O)c1nn(-c2ccc(C(=O)NS(=O)(=O)c3ccc4ccccc4c3)cc2C(=O)N2Cc3ccccc3C[C@H]2CN2CCN(CCO)CC2)c(C)c1Cl [Example 115, N,N-dibutyl-4-chloro-1-(2-((S)-3-((4-(2-hydroxyethyl)piperazin-1-yl)methyl)-1,2,3,4-tetrahydroisoquinoline-2-carbonyl)-4-(naphthalen-2-ylsulfonylcarbamoyl)phenyl)-5-methyl-1H-pyrazole-3-carboxamide] |
| 10 nM | 50 nM | CCCCN(CCCC)C(=O)c1nn(-c2ccc(C(=O)NS(=O)(=O)c3ccc4ccccc4c3)cc2C(=O)N2Cc3ccccc3C[C@H]2COCCO)c(C)c1Cl [Example 119, N,N-Dibutyl-4-chloro-1-(2-((S)-3-((2-hydroxyethoxy)methyl)-1,2,3,4-tetrahydroisoquinoline-2-carbonyl)-4-(naphthalen-2-ylsulfonylcarbamoyl)phenyl)-5-methyl-1H-pyrazole-3-carboxamide] |
| 220 nM | 30 nM | CCCCN(CCc1ccc(Cl)c(Cl)c1)C(=O)c1nn(-c2ccc(C(=O)NS(=O)(=O)c3ccc4ccccc4c3)cc2C(=O)N2CCc3ccccc3C2)c(C)c1Cl [Example 127, N-butyl-4-chloro-N-(3,4-dichlorophenethyl)-5-methyl-1-(4-(naphthalen-2-ylsulfonylcarbamoyl)-2-(1,2,3,4-tetrahydroisoquinoline-2-carbonyl)phenyl)-1H-pyrazole-3-carboxamide] |
| 80 nM | 110 nM | CCCCN(CCCC(F)(F)F)C(=O)c1nn(-c2ccc(C(=O)NS(=O)(=O)c3ccc4ccccc4c3)cc2C(=O)N2CCc3ccccc3C2)c(C)c1Cl [Example 128, N-butyl-4-chloro-5-methyl-1-(4-(naphthalen-2-ylsulfonylcarbamoyl)-2-(1,2,3,4-tetrahydroisoquinoline-2-carbonyl)phenyl)-N-(4,4,4-trifluorobutyl)-1H-pyrazole-3-carboxamide] |
| 30 nM | 80 nM | Cc1c(Cl)c(C(=O)N(CCC(F)(F)F)CCC(F)(F)F)nn1-c1ccc(C(=O)NS(=O)(=O)c2ccc3ccccc3c2)cc1C(=O)N1CCc2ccccc2C1 [Example 130, 4-chloro-5-methyl-1-(4-(naphthalen-2-ylsulfonylcarbamoyl)-2-(1,2,3,4-tetrahydroisoquinoline-2-carbonyl)phenyl)-N,N-bis(3,3,3-trifluoropropyl)-1H-pyrazole-3-carboxamide] |
| 30 nM | 70 nM | CCCCN(C(=O)c1nn(-c2ccc(C(=O)NS(=O)(=O)c3ccc4ccccc4c3)cc2C(=O)N2CCc3ccccc3C2)c(C)c1Cl)c1ccc2c(c1)OCCO2 [Example 149, N-butyl-4-chloro-N-(2,3-dihydrobenzo[b][1,4]dioxin-6-yl)-5-methyl-1-(4-(naphthalen-2-ylsulfonylcarbamoyl)-2-(1,2,3,4-tetrahydroisoquinoline-2-carbonyl)phenyl)-1H-pyrazole-3-carboxamide] |
| 160 nM | 50 nM | CCCCN(C(=O)c1nn(-c2ccc(C(=O)NS(=O)(=O)c3ccc4ccccc4c3)cc2C(=O)N2CCc3ccccc3C2)c(C)c1Cl)c1cccc(-c2cccc(Cl)c2)c1 [Example 152, N-butyl-4-chloro-N-(3′-chlorobiphenyl-3-yl)-5-methyl-1-(4-(naphthalen-2-ylsulfonylcarbamoyl)-2-(1,2,3,4-tetrahydroisoquinoline-2-carbonyl)phenyl)-1H-pyrazole-3-carboxamide] |

Second part, the compound before the results:

| Compound | IC50 [1] | IC50 [2] |
| --- | --- | --- |
| CCCCN(CCCC)C(=O)c1nn(-c2ccc(C(=O)NS(=O)(=O)c3ccc4c(ccn4Cc4ccc(Cl)c(Cl)c4)c3)cc2C(=O)N2CCc3ccccc3C2)c(C)c1Cl [Example 68, N,N-dibutyl-4-chloro-1-(4-(1-(3,4-dichlorobenzyl)-1H-indol-5-ylsulfonylcarbamoyl)-2-(1,2,3,4-tetrahydroisoquinoline-2-carbonyl)phenyl)-5-methyl-1H-pyrazole-3-carboxamide] | 110 nM | 50 nM |
| CCCCN(CCCC)C(=O)c1nn(-c2ccc(C(=O)NS(=O)(=O)c3ccc4c(c3)CCN4C(=O)N3CCOCC3)cc2C(=O)N2CCc3ccccc3C2)c(C)c1Cl [Example 74, N,N-dibutyl-4-chloro-5-methyl-1-(4-(1-(morpholine-4-carbonyl)indolin-5-ylsulfonylcarbamoyl)-2-(1,2,3,4-tetrahydroisoquinoline-2-carbonyl)phenyl)-1H-pyrazole-3-carboxamide] | 60 nM | 340 nM |
| CCCCN(CCCC)C(=O)c1nn(-c2ccc(C(=O)NS(=O)(=O)c3ccc4c(ccn4CCCN4CCOCC4)c3)cc2C(=O)N2CCc3ccccc3C2)c(C)c1Cl [Example 82, N,N-dibutyl-4-chloro-5-methyl-1-(4-(1-(3-morpholinopropyl)-1H-indol-5-ylsulfonylcarbamoyl)-2-(1,2,3,4-tetrahydroisoquinoline-2-carbonyl)phenyl)-1H-pyrazole-3-carboxamide] | 30 nM | 390 nM |
| CCCCN(CCCC)C(=O)c1nn(-c2ccc(C(=O)NS(=O)(=O)c3ccc4c(c3)c(Cl)cn4CC)cc2C(=O)N2CCc3ccccc3C2)c(C)c1Cl [Example 83, N,N-dibutyl-4-chloro-1-(4-(3-chloro-1-ethyl-1H-indol-5-ylsulfonylcarbamoyl)-2-(1,2,3,4-tetrahydroisoquinoline-2-carbonyl)phenyl)-5-methyl-1H-pyrazole-3-carboxamide] | 40 nM | 20 nM |
| CCCCN(CCCC)C(=O)c1nn(-c2ccc(C(=O)NS(=O)(=O)c3ccc4c(c3)c(I)cn4CC)cc2C(=O)N2CCc3ccccc3C2)c(C)c1Cl [Example 84, N,N-dibutyl-4-chloro-1-(4-(1-ethyl-3-iodo-1H-indol-5-ylsulfonylcarbamoyl)-2-(1,2,3,4-tetrahydroisoquinoline-2-carbonyl)phenyl)-5-methyl-1H-pyrazole-3-carboxamide] | 80 nM | 7.69 nM |
| CCCCN(CCCC)C(=O)c1nn(-c2ccc(C(=O)NS(=O)(=O)c3cc(Br)c4c(c3)c(Br)cn4CC)cc2C(=O)N2CCc3ccccc3C2)c(C)c1Cl [Example 85, N,N-dibutyl-4-chloro-1-(4-(3,7-dibromo-1-ethyl-1H-indol-5-ylsulfonylcarbamoyl)-2-(1,2,3,4-tetrahydroisoquinoline-2-carbonyl)phenyl)-5-methyl-1H-pyrazole-3-carboxamide] | 20 nM | 4.19 nM |
| CCCCN(CCCC)C(=O)c1nn(-c2ccc(C(=O)NS(=O)(=O)c3ccc4ccccc4c3)cc2C(=O)N2Cc3ccccc3C[C@H]2CN)c(C)c1Cl [Example 92, 1-(2-((S)-3-(Aminomethyl)-1,2,3,4-tetrahydroisoquinoline-2-carbonyl)-4-(naphthalen-2-ylsulfonylcarbamoyl)phenyl)-N,N-dibutyl-4-chloro-5-methyl-1H-pyrazole-3-carboxamide] | 10 nM | 8.41 nM |
| CCCCN(CCCC)C(=O)c1nn(-c2ccc(C(=O)NS(=O)(=O)c3ccc4ccccc4c3)cc2C(=O)N2Cc3ccccc3C[C@@H]2C(=O)O)c(C)c1Cl [Example 93, (3R)-2-(2-(4-Chloro-3-(dibutylcarbamoyl)-5-methyl-1H-pyrazol-1-yl)-5-(naphthalen-2-ylsulfonylcarbamoyl)benzoyl)-1,2,3,4-tetrahydroisoquinoline-3-carboxylic acid] | 200 nM | 1650 nM |
| CCCCN(CCCC)C(=O)c1nn(-c2ccc(C(=O)NS(=O)(=O)c3ccc4ccccc4c3)cc2C(=O)N2COc3ccccc3C2)c(C)c1Cl [Example 96, N,N-Dibutyl-4-chloro-1-(2-(3,4-dihydro-2H-benzo[e][1,3]oxazine-3-carbonyl)-4-(naphthalen-2-ylsulfonylcarbamoyl)phenyl)-5-methyl-1H-pyrazole-3-carboxamide] | 60 nM | 120 nM |
| CCCCN(CCCC)C(=O)c1nn(-c2ccc(C(=O)NS(=O)(=O)c3ccc4ccccc4c3)cc2C(=O)N2CCc3ccc(C(=O)O)cc3C2)c(C)c1Cl [Example 100, 2-(2-(4-Chloro-3-(dibutylcarbamoyl)-5-methyl-1H-pyrazol-1-yl)-5-(naphthalen-2-ylsulfonylcarbamoyl)benzoyl)-1,2,3,4-tetrahydroisoquinoline-7-carboxylic acid] | 3510 nM | 4710 nM |
| CCCCN(CCCC)C(=O)c1nn(-c2ccc(C(=O)NS(=O)(=O)c3ccc4ccccc4c3)cc2C(=O)N2Cc3ccccc3S(=O)(=O)C2)c(C)c1Cl [Example 104, N,N-Dibutyl-4-chloro-1-(2-(1,1-dioxido-3,4-dihydro-2H-benzo[e][1,3]thiazine-3-carbonyl)-4-(naphthalen-2-ylsulfonylcarbamoyl)phenyl)-5-methyl-1H-pyrazole-3-carboxamide] | 130 nM | 440 nM |
| CCCCN(CCCC)C(=O)c1nn(-c2ccc(C(=O)NS(=O)(=O)c3ccc4ccccc4c3)cc2C(=O)N2Cc3ccccc3C[C@H]2COCCCOC)c(C)c1Cl [Example 105, N,N-Dibutyl-4-chloro-1-(2-((S)-3-((3-methoxypropoxy)methyl)-1,2,3,4-tetrahydroisoquinoline-2-carbonyl)-4-(naphthalen-2-ylsulfonylcarbamoyl)phenyl)-5-methyl-1H-pyrazole-3-carboxamide] | 30 nM | 20 nM |
